target: T1, hD2LR (human dopamine D2 receptor, long splice variant) (Homo sapiens, UniProt P14416); assay: BRET G protein (GαoA) activation, Gβγ-Venus / masGRK3ct-NLuc release; type: cell-based; conditions: not given
T1 construct: gene DRD2; full-length long isoform, stably expressed in Flp-In HEK293 cells (G protein BRET assay); C351I G alpha subunits co-transfected as sensors; hD2LR-NLuc fusion with GRK2-Venus in the GRK2 recruitment assay (SCH23390 row)

EC50 [nM]	Structure (SMILES)
1.58	C=CCN1C[C@H](C(=O)N(CCCN(C)C)C(=O)NCC)C[C@@H]2c3cccc4[nH]cc(c34)C[C@H]21 [Cabergoline]
4.37	CCN(CC)C(=O)N[C@H]1C[C@@H]2c3cccc4[nH]cc(c34)C[C@H]2N(C)C1 [Terguride]
282	Clc1cccc(C2CCN(CCCOc3ccc4scnc4c3)CC2)c1Cl [UNC9994]
209	Oc1c(CN2CCN(c3ccccn3)CC2)cc(Cl)c2cccnc12 [MLS1547]
2.82	CCCN(CCC)CCc1cccc2c1CC(=O)N2 [Ropinirole]

Structure (SMILES)	EC50 [nM]
CC(C)C[C@H]1C(=O)N2CCC[C@H]2[C@]2(O)O[C@](NC(=O)[C@@H]3C=C4c5cccc6[nH]c(Br)c(c56)C[C@H]4N(C)C3)(C(C)C)C(=O)N12 [Bromocriptine]	14.5

target: T1, hD2LR (human dopamine D2 receptor, long splice variant); assay: Schild analysis, BRET GRK2 recruitment (hD2LR-NLuc / GRK2-Venus); type: cell-based; conditions: read-out: pA2 (converted)

Kb [nM]	Structure (SMILES)
525	CN1CCc2cc(Cl)c(O)cc2[C@@H](c2ccccc2)C1 [SCH23390]

Reference: paper PMC8050214 (Scientific Reports, 2021)
